target: T1, human FSH receptor (Homo sapiens, UniProt P23945); experiment: HTRF assay for measuring cAMP in cells (FSH antagonism); assay type: cell-based; conditions: hFSHR clone 16 cells (CHO cells stably transfected with the human FSH receptor); in the presence of 1e-9 mol/l hFSH; cAMP readout; read-out: IC50 (FSH antagonistic effect in the HTRF assay)
T1 construct: expressed in transfected cells; host or cells: CHO cells (hFSHR clone 16)
T1 sequence (P23945 18-695): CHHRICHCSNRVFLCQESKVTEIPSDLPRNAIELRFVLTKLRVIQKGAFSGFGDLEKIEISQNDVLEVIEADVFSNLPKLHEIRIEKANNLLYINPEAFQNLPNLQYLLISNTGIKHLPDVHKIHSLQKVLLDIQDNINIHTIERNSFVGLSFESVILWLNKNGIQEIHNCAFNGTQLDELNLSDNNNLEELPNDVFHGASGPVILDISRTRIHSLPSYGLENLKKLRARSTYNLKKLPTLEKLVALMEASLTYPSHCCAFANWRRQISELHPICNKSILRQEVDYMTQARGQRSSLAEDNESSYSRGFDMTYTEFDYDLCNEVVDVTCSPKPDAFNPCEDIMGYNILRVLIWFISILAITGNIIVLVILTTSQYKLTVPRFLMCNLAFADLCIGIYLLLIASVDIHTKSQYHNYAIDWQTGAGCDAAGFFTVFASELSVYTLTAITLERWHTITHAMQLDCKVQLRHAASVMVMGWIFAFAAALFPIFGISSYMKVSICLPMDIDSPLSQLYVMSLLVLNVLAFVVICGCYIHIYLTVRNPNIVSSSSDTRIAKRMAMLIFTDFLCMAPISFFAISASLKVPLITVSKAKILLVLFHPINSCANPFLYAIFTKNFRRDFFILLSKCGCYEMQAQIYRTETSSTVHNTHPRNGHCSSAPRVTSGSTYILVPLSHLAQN
Protocol: HTRF Assay for Measuring cAMP in Cells
The method is based on a competitive immunoassay between native cAMP, which has been produced by the cells, and cAMP which is labelled with cAMPD2 conjugate. The tracer binding was visualized by a monoclonal antibody, anti-cAMP labelled with cryptate [HTRF=homogeneous time-resolved fluorescence].
The specific signal is inversely proportional to the cAMP concentration of the samples employed.
The 665 nm/620 nm fluorescence ratio was evaluated.
The following material was used: 96-well plates for the tissue culture, 96-well plates with black edge and black base (e.g. Fluotrac 600 from Greiner), 96-well plates for the substance dilutions of polypropylene and cAMP Femtomolar (4000wells Kit, CIS Bio International #62AM5PEJ).
The following reagents were used: BSA (bovine serum albumin) Fraction V protease-free, IBMX (3-isobutyl-1-methylxanthine), hFSH (human follicle stimulating hormone), Triton X-100 analytical grade, potassium fluoride analytical grade, G 418 (Geneticin) and Accutase.
Buffer 1 (washing and testing buffer) contained PBS, 1 mM CaCl2, 1 mM MgCl2, 0.2% glucose; 0.1% BSA, 1 mM IBMX.
Buffer 2 (2× lysis buffer) contained 1% Triton X-100 in PBS (without CaCl2 and MgCl2).
Buffer 3 (assay buffer) contained 50 mM potassium phosphate buffer (pH 7.0); 800 mM potassium fluoride; 0.2% BSA (always added fresh).
On day 1, the cells were seeded in 96-well plates (3×10^4 cells per well hFSHR clone 16 cells (CHO cells stably transfected with the human FSH receptor in 150 μl of medium). The next day, test substance dilutions were made up. For this purpose, all the substances were diluted in ice-cold buffer 1 (with or without hFSH), and the substance dilutions were placed on ice until applied to the cells.
The cell supernatant was then aspirated off, and the cells were washed 2× with 200 μl of buffer 1. The cells were treated with 60 μl of the appropriate substance concentrations at 37° C. for 2 h. The cells were then lysed with 60 μl of buffer 2 (put onto the supernatant) (on a plate shaker at RT for 30 min).
The test conjugates (cAMP-D2 and anti-cAMP cryptate, CIS Bio) were diluted in buffer 3 in accordance with the manufacturers' information. The actual mixture for measurement was pipetted into a black 96-well plate (in each case 15 μl of the cell lysate diluted with 35 μl of buffer 1; firstly 25 μl of cAMP-D2 conjugate were pipetted and, after 10 min, 25 μl of the anti-cAMP cryptate were added). This is followed by incubation at RT for 90 minutes. The measurement was carried out in a PheraStar (BMG).
Dose-effect curve (hFSH) for the human receptor: 1e-8, 3e-9, 1e-9, 3e-10, 1e-10, 3e-11, 1e-11, 3e-12 mol/l.
The test substances were employed in suitable dilutions in the absence (test for agonism) and in the presence of 1e-9 mol/l hFSH.
The values of the well ratio were averaged and then entered directly in SigmaPlot versus the concentrations. The maximum and minimum values were determined for each plate, and half the difference is to be regarded as IC50.

Row | Compound | IC50 [nM]
1 | COc1ccc(-c2ccc(OC(C)C)c(C(=O)NC(C)(CO)Cc3c[nH]c4ccccc34)c2)cc1OC (racemic) [Example 4, 4-Isopropoxy-3′,4′-dimethoxy-biphenyl-3-carboxylic acid [1-hydroxymethyl-2-(1H-indol-3-yl)-1-methyl-ethyl]-amide] | 50
2 | CC(C)Oc1ccc(C#Cc2ccccc2)cc1C(=O)NC(C)(CO)Cc1c[nH]c2ccccc12 (centres unmarked) [Example 1, N-[1-Hydroxymethyl-2-(1H-indol-3-yl)-1-methyl-ethyl]-2-isopropoxy-5-phenylethynyl-benzamide] | 1000
3 | CNC(=O)c1cc(F)cc(-c2ccc(OC(C)C)c(C(=O)NC(C)(CO)Cc3c[nH]c4ccccc34)c2)c1 (centres unmarked) [Example 2, 5′-Fluoro-4-isopropoxy-biphenyl-3,3′-dicarboxylic acid 3-{[2-hydroxy-1-(1H-indol-3-ylmethyl)-1-methyl-ethyl]-amide} 3′-methylamide] | 1000
4 | CNC(=O)c1ccc(-c2ccc(OC(C)C)c(C(=O)NC(C)(CO)Cc3c[nH]c4ccccc34)c2)cc1Cl (centres unmarked) [Example 3, 3′-Chloro-4-isopropoxy-biphenyl-3,4′-dicarboxylic acid 3-{[2-hydroxy-1-(1H-indol-3-ylmethyl)-1-methyl-ethyl]-amide}-4′-methylamide] | 100
5 | COc1ccccc1C#Cc1ccc(OC(C)C)c(C(=O)NC(C)(CO)Cc2c[nH]c3ccccc23)c1 (centres unmarked) [Example 5, N-[1-Hydroxymethyl-2-(1H-indol-3-yl)-1-methyl-ethyl]-2-isopropoxy-5-(2-methoxy-phenylethynyl)-benzamide] | 200

From US20090069328A1, “ALPHA-ALKYL SUBSTITUTED N-ACYLTRYPTOPHANOLS” (priority 2007, published 2009)
